According to ChEMBL document CHEMBL2401634, “Discovery of novel indolinone-based, potent, selective and brain penetrant inhibitors of LRRK2” (Bioorg Med Chem Lett, 2013):
In brackets after ≈: the same amount, converted by molar mass. Activity calls are given as the source filed them. No cut-off for these calls is given here.

Tests used:
[1] = target: Leucine-rich repeat serine/threonine-protein kinase 2 (Homo sapiens, UniProt Q5S007); test: Inhibition of human LRRK2 (1885 to 2132) using 5-Fluo-Ahx-RLGRDKYKTLRQIRQGNTK-OH as substrate after 60 mins by fluorescence assay
[2] = target: Vascular endothelial growth factor receptor 2 (Homo sapiens, UniProt P35968); test: Inhibition of KDR (unknown origin)
Chain of Vascular endothelial growth factor receptor 2 (P35968 whole entry): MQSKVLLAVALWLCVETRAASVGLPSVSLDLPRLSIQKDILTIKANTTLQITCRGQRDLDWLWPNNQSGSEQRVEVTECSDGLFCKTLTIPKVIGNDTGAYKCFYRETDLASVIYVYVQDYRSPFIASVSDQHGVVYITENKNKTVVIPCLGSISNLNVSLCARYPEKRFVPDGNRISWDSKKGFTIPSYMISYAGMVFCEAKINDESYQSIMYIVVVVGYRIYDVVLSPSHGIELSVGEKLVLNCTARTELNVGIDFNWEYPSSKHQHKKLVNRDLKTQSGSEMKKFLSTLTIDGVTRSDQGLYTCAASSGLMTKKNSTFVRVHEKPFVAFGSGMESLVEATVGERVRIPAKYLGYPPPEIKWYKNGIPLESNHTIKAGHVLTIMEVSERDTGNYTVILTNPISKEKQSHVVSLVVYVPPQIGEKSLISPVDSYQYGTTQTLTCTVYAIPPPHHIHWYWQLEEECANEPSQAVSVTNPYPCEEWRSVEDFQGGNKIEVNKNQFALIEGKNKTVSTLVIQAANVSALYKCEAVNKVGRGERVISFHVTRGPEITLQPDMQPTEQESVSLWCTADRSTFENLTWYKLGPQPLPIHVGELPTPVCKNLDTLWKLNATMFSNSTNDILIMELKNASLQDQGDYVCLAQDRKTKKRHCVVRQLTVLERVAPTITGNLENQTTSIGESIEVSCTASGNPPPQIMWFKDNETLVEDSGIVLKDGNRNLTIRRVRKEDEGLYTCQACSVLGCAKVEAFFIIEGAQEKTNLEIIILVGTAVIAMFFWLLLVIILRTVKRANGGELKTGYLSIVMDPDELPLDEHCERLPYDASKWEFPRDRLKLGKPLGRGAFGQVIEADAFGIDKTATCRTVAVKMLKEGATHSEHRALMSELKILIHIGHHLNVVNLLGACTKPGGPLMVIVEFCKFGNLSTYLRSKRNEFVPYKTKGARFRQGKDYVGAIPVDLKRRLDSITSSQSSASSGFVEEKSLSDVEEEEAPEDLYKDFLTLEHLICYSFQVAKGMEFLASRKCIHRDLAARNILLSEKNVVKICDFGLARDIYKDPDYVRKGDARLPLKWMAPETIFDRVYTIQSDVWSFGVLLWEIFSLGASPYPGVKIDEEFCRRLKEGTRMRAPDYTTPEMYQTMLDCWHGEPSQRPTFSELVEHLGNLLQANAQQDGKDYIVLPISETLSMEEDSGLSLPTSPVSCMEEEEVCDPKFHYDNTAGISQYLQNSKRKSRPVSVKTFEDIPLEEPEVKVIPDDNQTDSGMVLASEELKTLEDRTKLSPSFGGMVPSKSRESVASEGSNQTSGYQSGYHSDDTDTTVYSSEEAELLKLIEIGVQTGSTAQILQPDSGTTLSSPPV

[3] = target: Tyrosine-protein kinase Lck (Homo sapiens, UniProt P06239); test: Inhibition of LCK (unknown origin)
Chain of Tyrosine-protein kinase Lck (P06239 whole entry): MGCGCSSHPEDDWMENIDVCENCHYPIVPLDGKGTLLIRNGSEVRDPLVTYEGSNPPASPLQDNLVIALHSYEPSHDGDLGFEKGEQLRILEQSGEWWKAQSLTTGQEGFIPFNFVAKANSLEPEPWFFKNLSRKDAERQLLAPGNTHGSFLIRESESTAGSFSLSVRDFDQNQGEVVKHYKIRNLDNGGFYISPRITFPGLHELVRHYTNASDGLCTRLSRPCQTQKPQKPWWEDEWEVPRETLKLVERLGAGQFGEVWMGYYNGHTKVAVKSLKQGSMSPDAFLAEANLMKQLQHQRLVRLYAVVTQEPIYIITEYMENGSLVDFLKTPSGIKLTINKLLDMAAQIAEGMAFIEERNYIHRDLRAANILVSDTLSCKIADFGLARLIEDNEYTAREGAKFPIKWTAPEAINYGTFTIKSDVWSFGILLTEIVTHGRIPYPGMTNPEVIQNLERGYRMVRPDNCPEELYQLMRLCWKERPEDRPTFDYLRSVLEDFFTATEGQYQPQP

[4] = target: Platelet-derived growth factor receptor alpha (Homo sapiens, UniProt P16234); test: Inhibition of PDGFRa (unknown origin)
Chain of Platelet-derived growth factor receptor alpha (P16234 whole entry): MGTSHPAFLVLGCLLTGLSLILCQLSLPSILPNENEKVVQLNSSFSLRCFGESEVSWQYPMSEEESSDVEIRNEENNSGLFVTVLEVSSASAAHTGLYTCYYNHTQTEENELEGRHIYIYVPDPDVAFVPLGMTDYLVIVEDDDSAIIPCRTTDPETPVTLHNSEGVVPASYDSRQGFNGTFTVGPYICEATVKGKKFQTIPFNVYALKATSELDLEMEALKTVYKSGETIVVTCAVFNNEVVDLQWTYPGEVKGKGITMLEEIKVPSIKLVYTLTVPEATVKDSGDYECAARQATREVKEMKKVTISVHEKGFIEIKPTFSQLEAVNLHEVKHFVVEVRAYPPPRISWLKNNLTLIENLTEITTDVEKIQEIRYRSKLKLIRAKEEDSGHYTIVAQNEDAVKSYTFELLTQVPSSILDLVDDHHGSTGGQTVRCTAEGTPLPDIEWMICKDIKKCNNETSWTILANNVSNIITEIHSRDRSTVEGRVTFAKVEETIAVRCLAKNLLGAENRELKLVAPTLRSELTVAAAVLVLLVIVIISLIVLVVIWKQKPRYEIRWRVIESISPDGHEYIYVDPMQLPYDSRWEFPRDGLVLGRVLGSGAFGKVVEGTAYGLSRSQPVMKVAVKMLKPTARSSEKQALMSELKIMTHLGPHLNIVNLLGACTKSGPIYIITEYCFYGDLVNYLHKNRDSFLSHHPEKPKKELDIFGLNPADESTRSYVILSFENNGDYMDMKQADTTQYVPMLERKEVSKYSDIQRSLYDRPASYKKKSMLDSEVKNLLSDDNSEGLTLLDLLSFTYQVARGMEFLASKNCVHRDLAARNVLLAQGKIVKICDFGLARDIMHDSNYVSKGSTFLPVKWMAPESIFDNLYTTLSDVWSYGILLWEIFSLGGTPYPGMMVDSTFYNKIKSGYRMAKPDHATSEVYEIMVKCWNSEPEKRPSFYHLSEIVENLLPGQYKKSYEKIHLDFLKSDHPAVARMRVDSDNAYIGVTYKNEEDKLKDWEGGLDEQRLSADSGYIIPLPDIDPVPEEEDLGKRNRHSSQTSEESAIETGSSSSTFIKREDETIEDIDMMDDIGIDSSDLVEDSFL

[5] = target: Proto-oncogene tyrosine-protein kinase receptor Ret (Homo sapiens, UniProt P07949); test: Inhibition of RET (unknown origin)
Chain of Proto-oncogene tyrosine-protein kinase receptor Ret (P07949 whole entry): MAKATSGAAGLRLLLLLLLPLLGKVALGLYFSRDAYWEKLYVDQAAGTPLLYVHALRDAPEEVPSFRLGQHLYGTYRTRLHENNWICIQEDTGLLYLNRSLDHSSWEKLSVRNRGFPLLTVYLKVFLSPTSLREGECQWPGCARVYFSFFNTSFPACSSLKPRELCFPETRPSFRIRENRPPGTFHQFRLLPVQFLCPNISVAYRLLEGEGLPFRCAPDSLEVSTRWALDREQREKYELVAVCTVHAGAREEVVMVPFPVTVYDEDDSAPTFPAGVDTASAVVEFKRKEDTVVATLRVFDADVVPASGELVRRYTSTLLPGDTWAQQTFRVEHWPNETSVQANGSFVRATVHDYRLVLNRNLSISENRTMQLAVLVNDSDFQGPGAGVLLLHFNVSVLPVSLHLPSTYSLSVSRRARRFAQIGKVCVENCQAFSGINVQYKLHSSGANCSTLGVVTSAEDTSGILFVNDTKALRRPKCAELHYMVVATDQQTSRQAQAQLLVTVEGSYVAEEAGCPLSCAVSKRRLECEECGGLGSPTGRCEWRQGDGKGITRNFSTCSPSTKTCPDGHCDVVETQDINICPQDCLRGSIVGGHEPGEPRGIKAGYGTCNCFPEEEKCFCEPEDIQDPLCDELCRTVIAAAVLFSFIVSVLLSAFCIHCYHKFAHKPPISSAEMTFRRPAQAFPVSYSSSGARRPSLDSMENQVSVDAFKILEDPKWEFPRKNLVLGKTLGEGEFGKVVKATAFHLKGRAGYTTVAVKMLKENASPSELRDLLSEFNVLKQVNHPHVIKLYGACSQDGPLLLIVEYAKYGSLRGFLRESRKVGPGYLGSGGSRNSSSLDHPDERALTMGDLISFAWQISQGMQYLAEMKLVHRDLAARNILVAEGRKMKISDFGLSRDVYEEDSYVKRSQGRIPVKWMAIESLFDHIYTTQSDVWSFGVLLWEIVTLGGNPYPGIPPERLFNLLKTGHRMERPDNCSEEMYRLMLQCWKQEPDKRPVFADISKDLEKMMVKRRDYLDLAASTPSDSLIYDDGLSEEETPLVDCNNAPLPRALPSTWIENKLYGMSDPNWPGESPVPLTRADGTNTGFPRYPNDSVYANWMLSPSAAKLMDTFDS

[6] = target: ALK tyrosine kinase receptor (Homo sapiens, UniProt Q9UM73); test: Inhibition of ALK (unknown origin)
[7] = target: Leucine-rich repeat serine/threonine-protein kinase 2 (Mus musculus) (UniProt Q5S006); test: Binding affinity to LRRK2 in C57BL/6 mouse brain at 1 uM after 30 mins by competition pull down assay; assay type: tissue-based
Mus musculus [8] = test: Binding affinity to LRRK2 in C57BL/6 mouse brain at 90 mg/kg, iv after 1 hr by pull down assay; assay type: functional, organism-based; design: dose 90 mg/kg
Mus musculus [9] = test: Binding affinity to LRRK2 in po dosed C57BL/6 mouse brain after 2 hrs by pull down assay; assay type: functional, organism-based
[10] = Solubility of the compound at pH 6.8; assay type: physicochemical; conditions: buffer
Mus musculus [11] = test: Binding affinity to LRRK2 in C57BL/6 mouse brain at 10 to 180 mg/kg, po after 2 hrs by pull down assay relative to vehicle-treated control; assay type: functional, organism-based
[12] = target: Leucine-rich repeat serine/threonine-protein kinase 2 (Mus musculus) (UniProt Q5S006); test: Binding affinity to LRRK2 in mouse C2C12 cells at 1 uM after 30 mins by competition pull down assay; assay type: cell-based

| Structure (SMILES) | IC50 [1] [nM] | IC50 [2] [nM] | IC50 [3] [nM] | IC50 [4] [nM] | IC50 [5] [nM] | IC50 [6] [nM] | Activity [7] | Activity (Mus musculus [8]) | Activity (Mus musculus [9]) | solubility [10] [µg/mL] | Activity (Mus musculus [11]) | Activity [12] |
| --- | --- | --- | --- | --- | --- | --- | --- | --- | --- | --- | --- | --- |
| COc1ccc2c(c1)/C(=C/c1cc3c([nH]1)CCN(C(=O)N1CCOCC1)C3)C(=O)N2 | 3 | 5 | 120 | 150 | 25 | 660 |  |  |  |  |  |  |
| COc1ccc2c(c1)/C(=C/c1cc3c([nH]1)CCN(C(=O)CCN)C3)C(=O)N2 | 11 | 8 | 140 | 120 | 4 | 370 |  |  |  |  |  |  |
| COc1ccc2c(c1)/C(=C/c1cc3c([nH]1)CCN(C(=O)N1CCN(C)CC1)C3)C(=O)N2 | 9 | 6 | 50 | 60 | 6 | 550 | Active | inactive | Dose-dependent effect | 15 (≈ 35.6 µM) | Active | Active |
| COc1ccc2c(c1)/C(=C/c1cc3c([nH]1)CCN(C(=O)c1cnoc1C)C3)C(=O)N2 | 7 | 16 | 390 | 540 | 75 | 1400 |  |  |  |  |  |  |
| CC(=O)N1CCc2[nH]c(/C=C3\C(=O)Nc4ccc(OC(C)C)cc43)cc2C1 | 4 | 900 | 1100 | 1700 | 150 | 3300 |  |  |  | < 1 |  |  |
| COc1ccc2c(c1)/C(=C/c1cc3c([nH]1)CCN(C(C)=O)C3)C(=O)N2 | 14 | 210 | 6050 | 250 | 54 | 1500 |  |  |  |  |  |  |
| COc1ccc2c(c1)/C(=C/c1cc3c([nH]1)CCN(C(=O)N1CCOCC1)C3)C(=O)N2C | 150 |  |  |  |  |  |  |  |  |  |  |  |
| COc1ccc2c(c1)/C(=C/c1[nH]c3c(c1Cl)CN(C(C)=O)CC3)C(=O)N2 | 8 | 87 | 1100 |  | 34 | > 10000 |  |  |  |  |  |  |
| CC(=O)Nc1ccc2c(c1)/C(=C/c1cc3c([nH]1)CCN(C(=O)N1CCOCC1)C3)C(=O)N2 | 4 | 7 | 330 | 91 | 25 | 210 |  |  |  |  |  |  |
| CC(=O)N1CCc2[nH]c(/C=C3\C(=O)Nc4ccc(C#N)cc43)cc2C1 | 7 | 20 | 120 | < 3 | 4 | 1600 |  |  |  |  |  |  |
| CN1CCC(Nc2ccc3c(c2)/C(=C/c2cc4c([nH]2)CCN(C(=O)N2CCOCC2)C4)C(=O)N3)CC1 | < 3 | 3 | 7 | 13 | 5 | 76 |  |  |  |  |  |  |
| COc1ccc2c(c1)/C(=C/c1[nH]c(C)c(C(=O)NCCCN)c1C)C(=O)N2 | 46 | < 1000 | < 1000 | < 1000 | < 1000 | < 1000 |  |  |  |  |  |  |
| O=C1Nc2ccc(C(F)(F)F)cc2/C1=C/c1cc2c([nH]1)CCN(C(=O)N1CCOCC1)C2 | < 3 | 83 | 180 | 46 | 140 | > 10000 |  |  |  |  |  |  |
| CC(=O)N1CCc2[nH]c(/C=C3\C(=O)Nc4ccc(C(F)(F)F)cc43)cc2C1 | 31 | 320 | 360 | 60 | 300 | 9500 |  |  |  |  |  |  |
| CC(=O)N1CCc2[nH]c(/C=C3\C(=O)Nc4ccc([N+](=O)[O-])cc43)cc2C1 | < 3 | 60 | 1000 | 31 | 73 | > 10000 |  |  |  |  |  |  |
